Assays:
[1] = test system: Phospho-SLP-76 (Ser376) in Jurkat cells; assay: Phospho-SLP-76 (Ser376) HTRF assay in anti-CD3 stimulated Jurkat cells; type: cell-based; details: Homo sapiens, Jurkat, 30 min pre-treatment, anti-CD3 stimulation 15 min, read-out: pSLP76 IC50
In short: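 Jurkat cells pre-treated 30 min with compound (11-point 3-fold series, final 10 μM to 0.1 nM, 0.1% DMSO), then stimulated 15 min at 37° C with 200 μg/mL F(ab)2-complexed anti-CD3 (UCTH1). Lysate phospho-SLP-76 read by HTRF sandwich after overnight RT incubation; IC50 from four-parameter fit.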

[2] = target: Human recombinant full-length GST-tagged PRKD2 (PKD2) (Homo sapiens (Human), UniProt Q9BZL6); assay: Biochemical selectivity kinase assay (Z'-LYTE FRET), PRKD2
Description: (§1) Biochemical Selectivity Kinase Assay.
(§2) The dose response curve was curve fit to model number 205 (sigmoidal dose-response model). A ratio of the PRKD2 IC50 to the HPK1 Ki and a ratio of the RSK3 IC50 to the HPK1 Ki, is provided in the respective columns adjacent to the columns for PRKD2 IC50 and RSK3 IC50.

[3] = target: human full-length autophosphorylated recombinant HPK1 (Homo sapiens (Human), UniProt Q92918); assay: HPK1 biochemical enzyme assay (chelation-enhanced fluorescence, CHEF); details: 0.5 nM HPK1, 45 μM ATP, Morrison fit
In short: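 Autophosphorylated full-length human HPK1 from Sf21 cells, His-tag removed by TEV, residual N-terminal Gly-Ser. Activity measured with a C-Sox fluorescent peptide substrate (CHEF); initial velocities followed at λex 360/λem 500 nm, 30 °C for 15 min.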

[4] = target: Human recombinant full-length GST-tagged RPS6KA2 (RSK3) (Homo sapiens (Human), UniProt Q15349); assay: Biochemical selectivity kinase assay (Z'-LYTE FRET), RSK3
Description: as §1, §2

Human recombinant full-length GST-tagged PRKD2 (PKD2), sequence (Q9BZL6 whole entry): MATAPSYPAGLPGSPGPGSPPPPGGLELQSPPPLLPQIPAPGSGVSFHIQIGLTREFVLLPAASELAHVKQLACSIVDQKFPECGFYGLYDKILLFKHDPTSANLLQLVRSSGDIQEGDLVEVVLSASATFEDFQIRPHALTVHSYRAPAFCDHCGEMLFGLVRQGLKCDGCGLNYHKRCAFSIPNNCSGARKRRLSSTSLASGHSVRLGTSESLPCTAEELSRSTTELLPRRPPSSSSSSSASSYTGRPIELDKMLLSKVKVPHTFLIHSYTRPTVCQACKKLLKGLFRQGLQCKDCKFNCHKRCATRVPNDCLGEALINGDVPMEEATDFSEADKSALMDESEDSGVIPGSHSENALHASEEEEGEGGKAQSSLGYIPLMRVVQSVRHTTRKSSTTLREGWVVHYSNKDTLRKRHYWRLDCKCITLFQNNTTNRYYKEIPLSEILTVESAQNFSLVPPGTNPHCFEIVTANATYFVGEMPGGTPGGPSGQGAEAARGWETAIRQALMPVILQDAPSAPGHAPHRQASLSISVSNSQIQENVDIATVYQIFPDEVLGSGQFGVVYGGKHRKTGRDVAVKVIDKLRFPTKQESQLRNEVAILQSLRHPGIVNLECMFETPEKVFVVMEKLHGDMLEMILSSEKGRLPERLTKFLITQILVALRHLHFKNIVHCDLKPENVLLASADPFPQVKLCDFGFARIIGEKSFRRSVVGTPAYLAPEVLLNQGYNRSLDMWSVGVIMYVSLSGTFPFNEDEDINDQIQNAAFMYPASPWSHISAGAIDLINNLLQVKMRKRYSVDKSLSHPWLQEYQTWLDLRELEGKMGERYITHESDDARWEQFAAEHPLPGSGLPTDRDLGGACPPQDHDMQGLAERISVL
Human recombinant full-length GST-tagged RPS6KA2 (RSK3), sequence (Q15349 whole entry): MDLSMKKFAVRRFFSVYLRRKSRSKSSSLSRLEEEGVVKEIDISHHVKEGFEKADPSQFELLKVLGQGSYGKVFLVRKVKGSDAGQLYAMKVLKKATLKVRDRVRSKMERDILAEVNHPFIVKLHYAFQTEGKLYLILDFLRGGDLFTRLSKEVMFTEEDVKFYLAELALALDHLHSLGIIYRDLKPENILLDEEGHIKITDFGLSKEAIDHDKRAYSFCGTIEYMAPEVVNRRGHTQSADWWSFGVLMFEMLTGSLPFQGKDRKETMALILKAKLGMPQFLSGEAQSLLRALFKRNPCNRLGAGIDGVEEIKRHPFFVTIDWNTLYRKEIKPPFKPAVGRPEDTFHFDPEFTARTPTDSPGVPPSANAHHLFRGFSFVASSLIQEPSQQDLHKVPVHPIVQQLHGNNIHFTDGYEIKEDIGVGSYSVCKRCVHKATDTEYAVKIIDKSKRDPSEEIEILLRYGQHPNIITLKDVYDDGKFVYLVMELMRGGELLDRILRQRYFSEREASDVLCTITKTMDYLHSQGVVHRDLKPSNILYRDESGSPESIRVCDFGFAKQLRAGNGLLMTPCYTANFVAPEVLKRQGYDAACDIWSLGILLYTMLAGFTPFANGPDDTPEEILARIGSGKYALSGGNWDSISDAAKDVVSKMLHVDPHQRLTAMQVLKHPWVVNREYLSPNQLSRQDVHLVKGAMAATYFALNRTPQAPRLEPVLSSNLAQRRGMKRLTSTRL
human full-length autophosphorylated recombinant HPK1, sequence (Q92918 other isoform, or with tags, fused parts or gaps): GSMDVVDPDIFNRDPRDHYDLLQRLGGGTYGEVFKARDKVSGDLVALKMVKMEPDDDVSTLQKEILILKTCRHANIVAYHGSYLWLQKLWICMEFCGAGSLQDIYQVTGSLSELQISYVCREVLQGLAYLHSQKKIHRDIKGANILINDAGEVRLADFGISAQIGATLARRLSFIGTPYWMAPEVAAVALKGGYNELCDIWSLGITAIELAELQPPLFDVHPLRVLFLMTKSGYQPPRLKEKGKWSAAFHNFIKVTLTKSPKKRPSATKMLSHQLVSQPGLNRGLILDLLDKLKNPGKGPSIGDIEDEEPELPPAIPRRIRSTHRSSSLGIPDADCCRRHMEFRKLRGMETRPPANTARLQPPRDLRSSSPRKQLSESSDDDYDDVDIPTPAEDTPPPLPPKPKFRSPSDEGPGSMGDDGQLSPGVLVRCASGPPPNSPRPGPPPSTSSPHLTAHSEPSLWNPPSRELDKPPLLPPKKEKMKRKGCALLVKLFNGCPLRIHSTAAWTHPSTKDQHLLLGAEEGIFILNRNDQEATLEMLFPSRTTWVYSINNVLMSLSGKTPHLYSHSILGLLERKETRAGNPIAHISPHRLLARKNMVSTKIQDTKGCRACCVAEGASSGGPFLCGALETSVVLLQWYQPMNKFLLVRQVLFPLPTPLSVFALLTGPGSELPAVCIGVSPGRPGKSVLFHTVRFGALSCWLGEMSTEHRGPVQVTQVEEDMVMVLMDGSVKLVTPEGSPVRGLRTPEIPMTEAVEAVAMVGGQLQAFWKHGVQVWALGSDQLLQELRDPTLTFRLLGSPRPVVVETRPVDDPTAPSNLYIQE

Question: How did the IC50 [1] turn out when CCn1cnnc1-c1cccc(N2Cc3c(cc(N4CCC[C@H]4C)nc3C(C)(C)N)C2=O)n1 [Example 100, 4-(2-aminopropan-2-yl)-2-[6-(4-ethyl-4H-1,2,4-triazol-3-yl)pyridin-2-yl]-6-[(2R)-2-methylpyrrolidin-1-yl]-2,3-dihydro-1H-pyrrolo[3,4-c]pyridin-1-one] was run?
Answer: 39 nM

Question: What about the IC50 ([2]; 25 μM ATP (~Km)) of the same compound?
Answer: 51.2 nM

Question: What about the “PRKD2 IC50/HPK1 Ki” value ([2]; ratio of the PRKD2 IC50 to the HPK1 Ki) of the same compound?
Answer: >1020

Question: What about the Ki [3] of the same compound?
Answer: < 0.05 nM

Question: What about the IC50 ([4]; 10 μM ATP (~Km)) of the same compound?
Answer: 15.5 nM

Question: What about the “RSK3 IC50/HPK1 Ki” value ([4]; ratio of the RSK3 IC50 to the HPK1 Ki) of the same compound?
Answer: >320

Source: patent US11684616B2, “Azalactam compounds as HPK1 inhibitors” (PFIZER INC., priority 2020, dated 2023)
